Here are results for 59 sequences from the supplement of paper PMC11208160.

The nature of this data set: recombinant barcode read abundance after kanamycin selection (control-corrected) (log10(CPM+1)); higher = more efficient recombination; sequences stand for … in AGTGCAGAGAAAATCGGCCAGTTTTCTCTGCCTGCAGTCCGCATGCCGT…AGATTTATGCAGCGGACTGCCTTTCTCCCAAAGTGATAAACCGGACAGTATCATGGACCGGTTTTCCCGGTAATCCGTATTTGCAAGGTTGGTTTCACT; site = the 11-nt target. The method, then:
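Pooled E. coli target-specificity screen for the IS621 bridge recombinase. Each library plasmid pairs an 11-nt target (CT core) with a bridge RNA whose target-binding loop (9-nt LTG + 4-nt RTG) is reprogrammed; the rest of the 177-nt WT IS621 bridge RNA scaffold is fixed. The plasmid is co-electroporated with a WT donor plasmid; recombinase is induced with 0.1 mM IPTG and recombinants are selected on kanamycin. Recombinant barcodes are sequenced, converted to CPM, averaged over two biological replicates and corrected by the unselected control CPM. Molecule = full bridge RNA written as DNA: LTG = specificity nt 1-9, RTG = reverse complement of specificity nt 8-11, in the WT scaffold.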
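Further: IS621 recombinase and bridge RNA in Escherichia coli cells.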

With “AATTGCCCTTGGGTTCTAACCTGTTGCCT (site AGTTGCCCTAG)”, the “recombinant barcode read abundance (log10)” value came to 0.0557.
For the sequence “AATTGCCCTTGGGTTCTAACCTGTTGCCT (site ATTTGCCCTAG)”, the “recombinant barcode read abundance (log10)” value was determined as 0.166.
The same measure for “AATTGGACTTGGGTTCTAACCTGTTGCTT (site AATTGGACTAA)”: 0.355.
The same measure for “AATTGGACTTGGGTTCTAACCTGTTGCTT (site CATTGGACTAA)”: 0.0957; for “AATTGGACTTGGGTTCTAACCTGTTGCTT (site GATTGGACTAA)”: 0.0807.
As for “AATTGGACTTGGGTTCTAACCTGTTGCTT (site TATTGGACTAA)”, the figure is 0.455.
In the case of “AATTGTCCTTGGGTTCTAACCTGTTGCGT (site AATTGTCCTAA)”, the “recombinant barcode read abundance (log10)” value amounted to 0.0377.
With “AATTGTCCTTGGGTTCTAACCTGTTGCGT (site AATTGTCCTAC)”, the “recombinant barcode read abundance (log10)” value stood at 1.17.
As for “AATTGTCCTTGGGTTCTAACCTGTTGCGT (site AATTGTCCTAG)”, the “recombinant barcode read abundance (log10)” value amounted to 0.154.
On to “AATTGTCCTTGGGTTCTAACCTGTTGCGT (site AATTGTCCTAT)”, for which the “recombinant barcode read abundance (log10)” value amounted to 0.0639.
As for “ACAAACCCTTGGGTTCTAACCTGTTGCTA (site ACAAACCCTTA)”, the “recombinant barcode read abundance (log10)” value came out at 0.672.
Consider “ACAAACCCTTGGGTTCTAACCTGTTGCTA (site CTGGCAGCTAG)”, for which the “recombinant barcode read abundance (log10)” value worked out at 0.85.
As for “ACAAATCCTTGGGTTCTAACCTGTTGCCT (site ACAAAACCTAG)”, the figure is 0.116; as for “ACAAATCCTTGGGTTCTAACCTGTTGCCT (site ACAAACCCTAG)”, 0.292.
For the sequence “ACAAATCCTTGGGTTCTAACCTGTTGCCT (site ACAAAGCCTAG)”, the “recombinant barcode read abundance (log10)” value is 0.0186.
Consider “ACAAATCCTTGGGTTCTAACCTGTTGCCT (site ACAAATCCTAG)”, for which the “recombinant barcode read abundance (log10)” value was found to be 0.591.
“ACAACGACTTGGGTTCTAACCTGTTGCCT (site ACAACCACTAG)”: the “recombinant barcode read abundance (log10)” value turned out to be 0.0471.
The same measure for “ACAACGACTTGGGTTCTAACCTGTTGCCT (site ACAACGACTAG)”: 0.689; for “ACAAGGCCTTGGGTTCTAACCTGTTGCAT (site ACAAGGCCTAT)”: 1.38; for “ACAAGGCCTTGGGTTCTAACCTGTTGCAT (site TGCCCCTCTCG)”: 0.263.
The same measure for “ACAAGGGCTTGGGTTCTAACCTGTTGCTG (site ACAAGGGCTCA)”: 2.06.
As for “ACAAGGGCTTGGGTTCTAACCTGTTGCTG (site GAGGCTACTAT)”, the figure is 0.531; as for “ACAATATCTTGGGTTCTAACCTGTTGCCT (site ACAATATCTAG)”, 0.774; as for “ACAATATCTTGGGTTCTAACCTGTTGCCT (site ACATGATCTAG)”, 0.242.
For “ACACATACTTGGGTTCTAACCTGTTGCCT (site ACACATACTAG)”, the “recombinant barcode read abundance (log10)” value amounted to 0.302.
Regarding “ACACATACTTGGGTTCTAACCTGTTGCCT (site ACGCATACTAG)”, the “recombinant barcode read abundance (log10)” value worked out at 0.104.
As for “ACACCCTCTTGGGTTCTAACCTGTTGCAG (site ACACCCTCTCT)”, the figure is 1.79; as for “ACACCCTCTTGGGTTCTAACCTGTTGCAG (site GGTATAACTTG)”, 0.271.
On to “ACACCGTCTTGGGTTCTAACCTGTTGCCT (site ACACCGTCTAG)”, for which the “recombinant barcode read abundance (log10)” value came out at 2.12.
The same measure for “ACACCGTCTTGGGTTCTAACCTGTTGCCT (site AGACCTTCTAG)”: 0; for “ACACGACCTTGGGTTCTAACCTGTTGCGG (site ACACGACCTCC)”: 2.48; for “ACACGACCTTGGGTTCTAACCTGTTGCGG (site ACAGGAGCTCC)”: 0.
As for “ACAGAGACTTGGGTTCTAACCTGTTGCAG (site ACAGAGACTCT)”, the figure is 1.35; as for “ACAGAGACTTGGGTTCTAACCTGTTGCAG (site ACGTAGACTCT)”, 0.113; as for “ACAGCTACTTGGGTTCTAACCTGTTGCCT (site ACAGCTACTAG)”, 1.84.
As to “ACAGCTACTTGGGTTCTAACCTGTTGCCT (site ACAGCTTCTAG)”, the “recombinant barcode read abundance (log10)” value came out at 0.33.
As for “ACAGCTACTTGGGTTCTAACCTGTTGCTT (site ACAGCTACTAA)”, the figure is 0.699; as for “ACAGCTACTTGGGTTCTAACCTGTTGCTT (site GCAGCTACTCA)”, 0.0436.
As to “ACAGGGTCTTGGGTTCTAACCTGTTGCCT (site AAAGGGTCTAG)”, the “recombinant barcode read abundance (log10)” value stood at 0.
For the sequence “ACAGGGTCTTGGGTTCTAACCTGTTGCCT (site ACAGGGTCTAG)”, the “recombinant barcode read abundance (log10)” value is 2.32.
For “ACAGGGTCTTGGGTTCTAACCTGTTGCCT (site AGAGGGTCTAG)”, the “recombinant barcode read abundance (log10)” value turned out to be 0.193.
As for “ACAGGGTCTTGGGTTCTAACCTGTTGCCT (site ATAGGGTCTAG)”, the figure is 0.355; as for “ACAGGTCCTTGGGTTCTAACCTGTTGCCG (site ACAGGTCCTCG)”, 2.34; as for “ACAGGTCCTTGGGTTCTAACCTGTTGCCG (site GTCTAATCTAT)”, 0.12.
Turning to “ACAGTACCTTGGGTTCTAACCTGTTGCTG (site ACAGTACCTCA)”, the “recombinant barcode read abundance (log10)” value was 1.87.
As for “ACAGTACCTTGGGTTCTAACCTGTTGCTG (site TAGCCCTCTTT)”, the “recombinant barcode read abundance (log10)” value was determined as 0.204.
The same measure for “ACAGTTACTTGGGTTCTAACCTGTTGCAT (site ACAGTTACTAT)”: 1.29.
As for “ACAGTTACTTGGGTTCTAACCTGTTGCAT (site TTGTGAGCTTG)”, the figure is 0.737; as for “ACATACCCTTGGGTTCTAACCTGTTGCTG (site ACATACCCTCA)”, 1.81.
Regarding “ACATACCCTTGGGTTCTAACCTGTTGCTG (site CTTCGAACTAT)”, the “recombinant barcode read abundance (log10)” value came out at 0.142.
As for “ACATGGACTTGGGTTCTAACCTGTTGCAT (site ACATGAACTAT)”, the figure is 0.753; as for “ACATGGACTTGGGTTCTAACCTGTTGCAT (site ACATGCACTAT)”, 0.115; as for “ACATGGACTTGGGTTCTAACCTGTTGCAT (site ACATGGACTAT)”, 2.72.
The same measure for “ACATGGACTTGGGTTCTAACCTGTTGCAT (site ACATGTACTAT)”: 0.157; for “ACATGTACTTGGGTTCTAACCTGTTGCAG (site ACATGTACTCT)”: 1.28.
The same measure for “ACATGTACTTGGGTTCTAACCTGTTGCAG (site AGATGTACTCA)”: 0.0852.
Consider “ACATGTACTTGGGTTCTAACCTGTTGCAT (site ACATGAACTAT)”, for which the “recombinant barcode read abundance (log10)” value amounted to 0.0356.
Consider “ACATGTACTTGGGTTCTAACCTGTTGCAT (site ACATGCACTAT)”, for which the “recombinant barcode read abundance (log10)” value came to 0.
With “ACATGTACTTGGGTTCTAACCTGTTGCAT (site ACATGGACTAT)”, the “recombinant barcode read abundance (log10)” value turned out to be 0.121.
